This is an account of results in ChEMBL document CHEMBL5291721, “A preclinical secondary pharmacology resource illuminates target-adverse drug reaction associations of marketed drugs” (Nat Commun, 2023).

Broadly, the AC50 is the concentration giving half of the maximal activity seen. Low readings indicate activity at low concentration, high ones activity only at high concentration.

In experiment [1] the target is T1, Androgen receptor (Rattus norvegicus, UniProt P15207).
T1 sequence (P15207 whole entry): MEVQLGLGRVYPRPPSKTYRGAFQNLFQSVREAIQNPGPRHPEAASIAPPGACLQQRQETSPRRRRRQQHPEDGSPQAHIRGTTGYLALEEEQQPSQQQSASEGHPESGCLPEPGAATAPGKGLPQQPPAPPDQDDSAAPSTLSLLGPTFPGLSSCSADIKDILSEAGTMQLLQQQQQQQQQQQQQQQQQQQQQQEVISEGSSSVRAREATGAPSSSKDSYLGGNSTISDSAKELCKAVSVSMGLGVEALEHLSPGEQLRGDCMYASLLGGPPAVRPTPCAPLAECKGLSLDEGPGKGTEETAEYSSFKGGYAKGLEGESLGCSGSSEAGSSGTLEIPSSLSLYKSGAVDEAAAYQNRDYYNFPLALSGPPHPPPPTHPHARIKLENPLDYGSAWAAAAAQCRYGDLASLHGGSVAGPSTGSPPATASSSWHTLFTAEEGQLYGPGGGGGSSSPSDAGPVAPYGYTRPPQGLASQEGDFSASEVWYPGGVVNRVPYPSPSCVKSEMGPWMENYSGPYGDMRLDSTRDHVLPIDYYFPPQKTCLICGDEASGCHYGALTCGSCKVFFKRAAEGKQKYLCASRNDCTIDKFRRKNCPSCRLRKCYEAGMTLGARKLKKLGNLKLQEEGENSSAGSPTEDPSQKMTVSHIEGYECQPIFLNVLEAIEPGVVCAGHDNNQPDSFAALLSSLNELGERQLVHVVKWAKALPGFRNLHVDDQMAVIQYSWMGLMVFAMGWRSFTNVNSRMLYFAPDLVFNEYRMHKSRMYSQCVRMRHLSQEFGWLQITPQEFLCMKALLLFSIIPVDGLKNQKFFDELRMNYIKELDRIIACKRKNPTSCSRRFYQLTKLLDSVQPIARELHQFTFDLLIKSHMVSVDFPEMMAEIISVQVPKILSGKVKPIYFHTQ

The next experiment deals with Estrogen receptor beta (Homo sapiens, UniProt Q92731).
Estrogen receptor beta, sequence (Q92731 whole entry): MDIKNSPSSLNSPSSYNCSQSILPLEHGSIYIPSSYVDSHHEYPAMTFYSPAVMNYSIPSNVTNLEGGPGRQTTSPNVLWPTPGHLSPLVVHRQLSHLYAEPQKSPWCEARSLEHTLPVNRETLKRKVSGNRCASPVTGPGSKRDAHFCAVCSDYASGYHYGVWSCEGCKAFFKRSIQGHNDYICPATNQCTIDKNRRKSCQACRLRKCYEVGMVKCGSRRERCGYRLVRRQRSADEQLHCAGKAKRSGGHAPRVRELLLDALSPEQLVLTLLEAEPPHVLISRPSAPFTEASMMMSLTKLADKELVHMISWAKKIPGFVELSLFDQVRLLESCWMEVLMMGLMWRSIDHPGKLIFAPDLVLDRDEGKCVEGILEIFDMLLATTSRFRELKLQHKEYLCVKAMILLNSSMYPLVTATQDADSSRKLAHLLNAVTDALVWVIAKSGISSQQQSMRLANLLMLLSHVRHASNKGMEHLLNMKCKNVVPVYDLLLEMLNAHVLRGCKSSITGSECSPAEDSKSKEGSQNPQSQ
In experiment [2] the target is 5-hydroxytryptamine receptor 2A (Homo sapiens, UniProt P28223).
5-hydroxytryptamine receptor 2A, sequence (P28223 whole entry): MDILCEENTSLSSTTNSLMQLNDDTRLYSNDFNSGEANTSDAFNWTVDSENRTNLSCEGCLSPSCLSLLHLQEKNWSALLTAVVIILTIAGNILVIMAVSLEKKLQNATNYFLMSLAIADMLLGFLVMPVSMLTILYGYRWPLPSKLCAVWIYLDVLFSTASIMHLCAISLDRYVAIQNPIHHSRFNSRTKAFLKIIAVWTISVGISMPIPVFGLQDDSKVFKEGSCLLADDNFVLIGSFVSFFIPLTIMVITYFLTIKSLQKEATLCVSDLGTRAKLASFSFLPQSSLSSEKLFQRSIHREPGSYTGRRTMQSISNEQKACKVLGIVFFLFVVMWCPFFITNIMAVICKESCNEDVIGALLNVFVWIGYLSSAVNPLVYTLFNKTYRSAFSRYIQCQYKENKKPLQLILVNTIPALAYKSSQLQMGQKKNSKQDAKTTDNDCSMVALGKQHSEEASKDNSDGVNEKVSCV
In experiment [3] the target is 5-hydroxytryptamine receptor 5A (Homo sapiens, UniProt P47898).
5-hydroxytryptamine receptor 5A, sequence (P47898 whole entry): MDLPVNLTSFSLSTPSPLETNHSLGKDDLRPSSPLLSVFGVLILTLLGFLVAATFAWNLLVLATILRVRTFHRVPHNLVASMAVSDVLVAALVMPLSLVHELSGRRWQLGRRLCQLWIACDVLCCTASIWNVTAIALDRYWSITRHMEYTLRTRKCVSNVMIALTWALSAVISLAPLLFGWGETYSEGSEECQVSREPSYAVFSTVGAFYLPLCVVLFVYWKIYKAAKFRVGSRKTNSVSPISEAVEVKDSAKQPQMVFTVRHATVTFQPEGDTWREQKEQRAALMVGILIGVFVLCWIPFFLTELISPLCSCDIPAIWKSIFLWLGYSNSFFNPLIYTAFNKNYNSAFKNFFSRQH
The target in experiment [4] is 5-hydroxytryptamine receptor 7 (Homo sapiens, UniProt P34969).
5-hydroxytryptamine receptor 7, sequence (P34969 whole entry): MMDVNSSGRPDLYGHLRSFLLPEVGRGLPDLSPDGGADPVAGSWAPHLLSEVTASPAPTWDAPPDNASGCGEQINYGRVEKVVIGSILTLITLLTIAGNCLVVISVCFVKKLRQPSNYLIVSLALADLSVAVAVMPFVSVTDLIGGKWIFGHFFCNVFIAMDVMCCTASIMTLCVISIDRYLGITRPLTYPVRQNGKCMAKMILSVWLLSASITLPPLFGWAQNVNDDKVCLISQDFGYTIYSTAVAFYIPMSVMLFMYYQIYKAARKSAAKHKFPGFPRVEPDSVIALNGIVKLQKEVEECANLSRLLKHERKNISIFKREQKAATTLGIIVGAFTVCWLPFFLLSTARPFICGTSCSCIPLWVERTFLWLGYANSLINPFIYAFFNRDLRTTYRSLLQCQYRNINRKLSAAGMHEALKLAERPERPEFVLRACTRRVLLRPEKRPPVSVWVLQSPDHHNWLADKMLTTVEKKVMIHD
The target of experiment [5] is T2, Muscarinic acetylcholine receptor M4 (Homo sapiens, UniProt P08173).
T2 sequence (P08173 whole entry): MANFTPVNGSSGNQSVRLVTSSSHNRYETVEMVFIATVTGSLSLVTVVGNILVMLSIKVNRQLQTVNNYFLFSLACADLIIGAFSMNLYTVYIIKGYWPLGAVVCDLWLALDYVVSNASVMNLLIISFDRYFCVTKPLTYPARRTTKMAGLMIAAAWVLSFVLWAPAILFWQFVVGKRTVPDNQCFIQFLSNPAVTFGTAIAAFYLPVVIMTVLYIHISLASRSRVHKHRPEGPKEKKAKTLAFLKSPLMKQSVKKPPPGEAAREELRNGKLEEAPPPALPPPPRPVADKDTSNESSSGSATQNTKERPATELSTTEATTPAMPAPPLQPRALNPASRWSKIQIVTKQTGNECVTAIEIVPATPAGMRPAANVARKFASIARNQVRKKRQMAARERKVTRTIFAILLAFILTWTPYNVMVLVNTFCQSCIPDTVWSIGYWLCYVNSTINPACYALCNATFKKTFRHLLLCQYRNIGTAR

The target in experiment [6] is Gamma-aminobutyric acid type B receptor subunit 1 (Homo sapiens, UniProt Q9UBS5).
The target in experiment [7] is 5-hydroxytryptamine receptor 6 (Homo sapiens, UniProt P50406).
5-hydroxytryptamine receptor 6, sequence (P50406 whole entry): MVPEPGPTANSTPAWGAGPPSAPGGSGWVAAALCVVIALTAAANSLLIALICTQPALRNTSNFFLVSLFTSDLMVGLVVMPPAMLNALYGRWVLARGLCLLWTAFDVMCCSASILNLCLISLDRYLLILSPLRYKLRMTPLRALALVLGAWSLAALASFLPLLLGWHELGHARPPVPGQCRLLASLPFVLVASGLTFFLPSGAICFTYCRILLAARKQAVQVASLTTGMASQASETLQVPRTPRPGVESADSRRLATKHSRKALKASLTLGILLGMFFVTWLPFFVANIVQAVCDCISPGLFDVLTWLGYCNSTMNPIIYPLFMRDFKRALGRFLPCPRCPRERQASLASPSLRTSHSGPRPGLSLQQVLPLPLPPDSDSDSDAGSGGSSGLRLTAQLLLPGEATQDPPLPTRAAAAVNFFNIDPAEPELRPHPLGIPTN
In experiment [8] the target is Rod cGMP-specific 3',5'-cyclic phosphodiesterase subunit alpha (Homo sapiens, UniProt P16499). Format: functional.
In the next experiment the target is Cannabinoid receptor 1 (Homo sapiens, UniProt P21554). Format: functional.
Another experiment addresses D(1B) dopamine receptor (Homo sapiens, UniProt P21918).
In experiment [9] the target is T1, Androgen receptor. Format: functional.
In experiment [10] the target is T1, Androgen receptor. Format: functional. The source holds these as a separate data set.
Experiment [11] addresses T3, Gamma-aminobutyric acid receptor subunit alpha-1/alpha-2/beta-2/gamma-2 (Homo sapiens, UniProt P14867+P18507+P47869+P47870). Format: functional, cell-based.
For experiment [12], the target named is T3, Gamma-aminobutyric acid receptor subunit alpha-1/alpha-2/beta-2/gamma-2. In kind it is functional, cell-based. The source holds these as a separate data set.
In experiment [13] the target is Sodium channel protein type 5 subunit alpha (Homo sapiens, UniProt Q14524). In kind it is functional, cell-based.
Experiment [14] addresses T4, Alpha-2A adrenergic receptor (Homo sapiens, UniProt P08913).
T4 sequence (P08913 whole entry): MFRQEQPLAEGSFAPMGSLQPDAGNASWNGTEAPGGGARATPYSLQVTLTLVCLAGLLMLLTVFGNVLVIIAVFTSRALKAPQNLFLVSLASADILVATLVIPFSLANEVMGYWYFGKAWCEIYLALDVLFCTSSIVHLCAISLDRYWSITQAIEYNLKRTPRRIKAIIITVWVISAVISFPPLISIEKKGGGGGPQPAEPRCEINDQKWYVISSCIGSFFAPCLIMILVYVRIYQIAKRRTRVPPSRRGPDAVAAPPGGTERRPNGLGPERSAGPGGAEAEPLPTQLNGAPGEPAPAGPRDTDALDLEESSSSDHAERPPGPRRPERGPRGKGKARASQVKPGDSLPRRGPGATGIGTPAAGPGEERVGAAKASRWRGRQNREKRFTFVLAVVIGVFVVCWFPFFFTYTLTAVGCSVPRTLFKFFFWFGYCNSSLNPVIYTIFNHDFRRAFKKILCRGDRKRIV
Also: assay procedure not described here.

T3 sequence (P14867 whole entry): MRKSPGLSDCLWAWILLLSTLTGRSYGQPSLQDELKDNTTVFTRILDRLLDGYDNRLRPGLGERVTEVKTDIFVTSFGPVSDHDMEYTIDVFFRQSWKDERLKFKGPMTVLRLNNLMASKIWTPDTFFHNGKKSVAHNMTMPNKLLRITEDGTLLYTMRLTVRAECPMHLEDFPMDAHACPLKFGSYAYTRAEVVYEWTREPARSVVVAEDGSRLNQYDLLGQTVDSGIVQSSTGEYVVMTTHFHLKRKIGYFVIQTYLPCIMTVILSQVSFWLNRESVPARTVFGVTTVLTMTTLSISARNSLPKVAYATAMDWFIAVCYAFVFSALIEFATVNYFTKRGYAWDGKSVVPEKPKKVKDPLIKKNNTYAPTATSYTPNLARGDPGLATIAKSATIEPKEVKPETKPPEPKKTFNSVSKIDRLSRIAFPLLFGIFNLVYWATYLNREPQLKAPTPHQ
T3 sequence (P47870 whole entry): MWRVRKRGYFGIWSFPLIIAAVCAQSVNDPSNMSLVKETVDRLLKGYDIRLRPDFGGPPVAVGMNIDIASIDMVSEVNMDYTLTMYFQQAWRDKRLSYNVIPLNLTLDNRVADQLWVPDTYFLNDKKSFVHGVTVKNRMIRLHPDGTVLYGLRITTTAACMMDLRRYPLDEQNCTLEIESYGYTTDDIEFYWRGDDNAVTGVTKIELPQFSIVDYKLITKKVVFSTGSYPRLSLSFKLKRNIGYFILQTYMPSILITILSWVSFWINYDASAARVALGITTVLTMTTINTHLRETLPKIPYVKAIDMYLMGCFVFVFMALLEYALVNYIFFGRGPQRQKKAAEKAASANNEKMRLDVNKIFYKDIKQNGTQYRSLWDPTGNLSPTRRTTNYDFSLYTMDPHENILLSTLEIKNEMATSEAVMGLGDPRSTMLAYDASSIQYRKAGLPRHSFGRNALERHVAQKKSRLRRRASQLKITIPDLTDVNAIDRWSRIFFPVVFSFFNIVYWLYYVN
T3 sequence (P18507 whole entry): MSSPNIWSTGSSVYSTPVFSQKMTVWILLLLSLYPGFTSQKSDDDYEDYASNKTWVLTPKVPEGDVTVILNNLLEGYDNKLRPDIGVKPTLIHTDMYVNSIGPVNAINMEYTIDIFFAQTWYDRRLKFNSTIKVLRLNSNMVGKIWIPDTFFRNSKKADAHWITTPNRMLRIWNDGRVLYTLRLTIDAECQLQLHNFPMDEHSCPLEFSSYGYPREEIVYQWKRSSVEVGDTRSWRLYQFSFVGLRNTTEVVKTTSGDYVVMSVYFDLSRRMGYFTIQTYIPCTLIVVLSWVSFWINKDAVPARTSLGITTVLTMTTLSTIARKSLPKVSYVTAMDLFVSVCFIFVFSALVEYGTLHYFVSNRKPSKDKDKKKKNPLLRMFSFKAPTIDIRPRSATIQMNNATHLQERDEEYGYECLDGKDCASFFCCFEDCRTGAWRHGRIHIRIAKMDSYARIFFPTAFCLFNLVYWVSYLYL
T3 sequence (P47869 whole entry): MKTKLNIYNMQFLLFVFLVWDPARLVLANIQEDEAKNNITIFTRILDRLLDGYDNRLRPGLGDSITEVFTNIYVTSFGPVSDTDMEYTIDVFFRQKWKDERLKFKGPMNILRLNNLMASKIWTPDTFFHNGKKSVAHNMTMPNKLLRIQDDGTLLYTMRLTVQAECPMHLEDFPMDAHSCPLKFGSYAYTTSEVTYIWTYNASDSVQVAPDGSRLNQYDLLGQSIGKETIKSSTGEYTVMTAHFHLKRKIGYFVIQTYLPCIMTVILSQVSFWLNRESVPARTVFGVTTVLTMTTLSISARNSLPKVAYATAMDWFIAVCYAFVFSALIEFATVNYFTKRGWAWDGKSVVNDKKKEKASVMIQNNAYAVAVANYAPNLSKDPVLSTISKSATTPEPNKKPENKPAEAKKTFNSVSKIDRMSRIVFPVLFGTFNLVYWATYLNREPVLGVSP
D(1B) dopamine receptor, sequence (P21918 whole entry): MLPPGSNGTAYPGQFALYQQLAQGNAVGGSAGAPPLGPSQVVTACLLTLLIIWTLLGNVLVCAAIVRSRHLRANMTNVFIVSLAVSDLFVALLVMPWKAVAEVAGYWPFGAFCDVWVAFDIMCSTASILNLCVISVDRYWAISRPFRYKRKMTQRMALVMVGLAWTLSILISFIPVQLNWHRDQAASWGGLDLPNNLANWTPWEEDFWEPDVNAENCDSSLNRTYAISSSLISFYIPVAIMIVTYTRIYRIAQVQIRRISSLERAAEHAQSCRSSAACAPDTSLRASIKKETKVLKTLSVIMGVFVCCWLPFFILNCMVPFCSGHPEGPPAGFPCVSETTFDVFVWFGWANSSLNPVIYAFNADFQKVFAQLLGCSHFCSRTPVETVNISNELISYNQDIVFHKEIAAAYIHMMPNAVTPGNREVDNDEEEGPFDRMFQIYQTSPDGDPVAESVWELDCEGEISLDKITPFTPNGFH

For `C[C@]1(COc2ccc(N3CCC(Oc4ccc(OC(F)(F)F)cc4)CC3)cc2)Cn2cc([N+](=O)[O-])nc2O1`, the values for the AC50 (on Androgen receptor [1]; at Estrogen receptor beta; in experiment [2]) were > 30 µM, > 30 µM and > 10 µM, respectively.
Take `C[C@]12CC[C@H](O)CC1=CC[C@@H]1[C@@H]2CC[C@]2(C)C(c3cccnc3)=CC[C@@H]12` [ABIRATERONE]: the AC50 on Androgen receptor [1] was > 30 µM; in experiment [2], > 10 µM.
As to `CC(=O)OCC[N+](C)(C)C` [ACETYLCHOLINE], the AC50 on Estrogen receptor beta is > 30 µM; in experiment [2], > 10 µM.
Take `O=C(Nc1nc(-c2cc(Cl)cs2)c(N2CCN(C3CCCCC3)CC2)s1)c1cnc(N2CCC(C(=O)O)CC2)c(Cl)c1` [AVATROMBOPAG]: the AC50 in experiment [3], in experiment [4], in [5], in experiment [6], in [7] and in experiment [2] was > 10 µM throughout. Further, the AC50 (in experiment [8]; on Cannabinoid receptor 1; on D(1B) dopamine receptor) was > 10 µM in each case.
For `CN(C)C(=O)Oc1cc(OC(=O)N(C)C)cc(C(O)CNC(C)(C)C)c1` (centres undefined) [BAMBUTEROL], the AC50 on Androgen receptor [9] and on Androgen receptor [10] was > 30 µM throughout.
On to `CO[C@@]1(NC(=O)CSCC#N)C(=O)N2C(C(=O)O)=C(CSc3nnnn3C)CS[C@@H]21` [CEFMETAZOLE], for which the AC50 in [11] was > 30 µM.
Turning to `CO/N=C(\C(=O)N[C@@H]1C(=O)N2C(C(=O)[O-])=C(C[n+]3cccc4c3CCC4)CS[C@H]12)c1csc(N)n1` [CEFPIROME], the AC50 in [11] and in experiment [12] was > 30 µM each time.
Consider `Oc1c(I)cc(Cl)c2cccnc12` [CLIOQUINOL], for which the AC50 in [11] and in experiment [12] was > 30 µM throughout.
As to `COc1ccc2c(c1)[C@]13CCCC[C@@H]1[C@H](C2)N(C)CC3` [DEXTROMETHORPHAN], the AC50 (on Estrogen receptor beta; in [13]) was > 30 µM throughout.
Consider `O=c1oc2ccccc2c(O)c1Cc1c(O)c2ccccc2oc1=O` [DICUMAROL], for which the AC50 at Androgen receptor [1] was > 10 µM.
As for `O=C(CCCN1CC=C(n2c(=O)[nH]c3ccccc32)CC1)c1ccc(F)cc1` [DROPERIDOL], half-maximal activity in experiment [13] (AC50) was put at 49 µM.
`CCn1cc(C(=O)O)c(=O)c2cc(F)c(N3CCNCC3)nc21` [ENOXACIN]: the AC50 in [3] was > 10 µM; on Estrogen receptor beta it was > 30 µM; in experiment [4] it was > 10 µM; in [5], > 10 µM; in [6], > 10 µM; in [7] it was > 10 µM. For the same compound, the AC50 (in experiment [8]; at Cannabinoid receptor 1; at D(1B) dopamine receptor) was > 10 µM each time.
In the case of `O=C(O)CSCC(=O)NC1CCSC1=O` (centres undefined) [ERDOSTEINE], the AC50 on Androgen receptor [9] and on Androgen receptor [10] was > 30 µM each time.
For the compound `N=C(N)c1ccc2cc(OC(=O)c3ccc(N=C(N)N)cc3)ccc2c1` [NAFAMOSTAT], the AC50 at Androgen receptor [9] worked out at 12 µM.
As for `c1ccc2c(CC3=NCCN3)cccc2c1` [NAPHAZOLINE], in experiment [14], half-maximal activity (AC50) was put at 0.0087 µM.
Regarding `COCCCOc1ccnc(C[S+]([O-])c2nc3ccccc3[nH]2)c1C` (centres undefined) [RABEPRAZOLE], the AC50 at Estrogen receptor beta was > 30 µM.
For `CC(C)=CCOc1ccc(/C=C/C(=O)c2ccc(OCC=C(C)C)cc2OCC(=O)O)cc1` [SOFALCONE], the half-maximal activity concentration (AC50) at Androgen receptor [9] is > 30 µM; at Androgen receptor [10], 6.1 µM.
Regarding `O=C(CCCN1CCC2(CC1)C(=O)NCN2c1ccccc1)c1ccc(F)cc1` [SPIPERONE], the figures for the AC50 in experiment [11], in [14] and in experiment [12] were > 30 µM, 17 µM and > 30 µM, respectively.
As to `CN(C)c1cc(NC(=O)CNC(C)(C)C)c(O)c2c1C[C@H]1C[C@H]3[C@H](N(C)C)C(O)=C(C(N)=O)C(=O)[C@@]3(O)C(O)=C1C2=O` [TIGECYCLINE], the AC50 at Androgen receptor [1] was > 30 µM.
In the case of `OCCN1CCN(CC/C=C2/c3ccccc3Sc3ccc(Cl)cc32)CC1` [ZUCLOPENTHIXOL], the values for the AC50 (on Androgen receptor [1]; in experiment [2]) were > 10 µM and 0.0046 µM, respectively.
